From PMC3830479 (Journal of Experimental Botany, 2013)

How the values were obtained:
OsG6PDH1 [1] = target: T1, OsG6PDH1 (Oryza sativa, UniProt Q0DZS9); assay: inhibition of G6PDH activity; assay type: biochemical; conditions: feedback (product) inhibition
T1 construct: gene Os02g0600400; coding region in pET32 (N-terminal fusion, His-tag), E. coli SoluBL21, HisTrap purified
T1 sequence (Q0DZS9 1-517): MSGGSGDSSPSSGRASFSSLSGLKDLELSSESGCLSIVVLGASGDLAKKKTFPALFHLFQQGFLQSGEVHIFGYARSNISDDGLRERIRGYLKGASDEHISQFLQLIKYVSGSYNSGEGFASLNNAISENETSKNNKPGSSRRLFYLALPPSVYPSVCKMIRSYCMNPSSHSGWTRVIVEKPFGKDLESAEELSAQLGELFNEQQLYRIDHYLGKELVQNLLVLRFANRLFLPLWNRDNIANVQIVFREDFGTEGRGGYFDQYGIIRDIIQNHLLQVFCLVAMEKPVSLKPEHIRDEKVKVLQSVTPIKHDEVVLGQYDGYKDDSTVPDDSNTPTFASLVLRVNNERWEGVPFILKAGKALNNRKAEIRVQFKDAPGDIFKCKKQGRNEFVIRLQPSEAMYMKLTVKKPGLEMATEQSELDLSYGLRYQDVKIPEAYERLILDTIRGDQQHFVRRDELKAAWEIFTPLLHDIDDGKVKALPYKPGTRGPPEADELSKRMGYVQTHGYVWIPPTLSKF

OsG6PDH2 [2] = target: T2, OsG6PDH2 (Oryza sativa, UniProt Q7X7I6); assay: inhibition of G6PDH activity; assay type: biochemical; conditions: feedback (product) inhibition
T2 construct: gene Os04g0485300; coding region in pET32 (N-terminal fusion, His-tag), E. coli SoluBL21, HisTrap purified
T2 sequence (Q7X7I6 1-505): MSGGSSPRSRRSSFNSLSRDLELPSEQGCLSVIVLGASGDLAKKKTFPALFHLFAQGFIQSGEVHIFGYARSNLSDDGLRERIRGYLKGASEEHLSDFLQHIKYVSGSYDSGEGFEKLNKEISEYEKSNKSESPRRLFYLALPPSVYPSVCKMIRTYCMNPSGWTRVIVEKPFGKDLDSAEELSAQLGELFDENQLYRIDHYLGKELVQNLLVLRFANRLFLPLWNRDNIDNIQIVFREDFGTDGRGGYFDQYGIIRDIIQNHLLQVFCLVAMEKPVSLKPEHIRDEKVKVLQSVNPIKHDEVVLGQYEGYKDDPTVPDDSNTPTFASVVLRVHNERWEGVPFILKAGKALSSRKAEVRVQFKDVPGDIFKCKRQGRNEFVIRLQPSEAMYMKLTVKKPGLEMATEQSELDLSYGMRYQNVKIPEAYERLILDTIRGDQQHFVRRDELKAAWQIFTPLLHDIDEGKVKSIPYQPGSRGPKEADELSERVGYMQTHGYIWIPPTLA

OsG6PDH1 [3] = target: T1, OsG6PDH1; design: Recombinant G6PDH spectrophotometric assay at 340 nm with G6P, NADP+ reduction, 25 °C, pH 7.6; conditions: feedback inhibition, G6P/NADP+ assay; inhibitor; read-out: Ki NADPH
Method: (§1) The activity of recombinant rice G6PDHs was measured spectrophotometrically (340nm) at 25 °C by detecting NADP reduction via G6PDH reaction, which is coupled with G6P production, as described by [Wakao and Benning (2005)]. Reaction mixtures with 0.01–10mM G6P contained 0.2M TRIS (pH 7.6), NADP^+ (0.01–10mM), and MgCl2 (5mM). DTT (10mM) was incubated with the reaction mixture for 1h to test its activity. The DNA fragment containing the coding region of OsHXK5, OsHXK6, AlsK, OsG6PDH1, or OsG6PDH2 was subcloned in-frame into the pET32 vector (Novagen), and overexpressed in E. coli SoluBL21 (Genlantis, San Diego, CA, USA) according to the manufacturer’s instructions. The recombinant proteins were purified using a HisTrap HP column (GE Healthcare, Wauwatosa, WI, USA) as per the manufacturer’s instructions and dialysed against 0.2M TRIS-HCl buffer (pH 7.6) containing MgCl2 (5mM). Recombinant proteins of OsG6PDH1 and OsG6PDH2 had enzymatic activity with G6P and NADP^+, and OsG6PDH1 had higher activity based on k cat/K m values (Table 2). […] Neither enzyme used A6P as a substrate (Supplementary Table S3).

OsG6PDH2 [4] = target: T2, OsG6PDH2; design: Recombinant G6PDH spectrophotometric assay at 340 nm with G6P, NADP+ reduction, 25 °C, pH 7.6; conditions: feedback inhibition, G6P/NADP+ assay; inhibitor; read-out: Ki NADPH
Method: as §1

NC(=O)C1=CN([C@@H]2O[C@H](COP(=O)(O)OP(=O)(O)OC[C@H]3O[C@@H](n4cnc5c(N)ncnc54)[C@H](OP(=O)(O)O)[C@@H]3O)[C@@H](O)[C@H]2O)C=CC1 [NADPH]
inhibition of G6PDH activity (OsG6PDH1 [1]): OsG6PDH1 and OsG6PDH2 suffered tight feedback inhibition by NADPH
inhibition of G6PDH activity (OsG6PDH2 [2]): OsG6PDH1 and OsG6PDH2 suffered tight feedback inhibition by NADPH
Ki (OsG6PDH1 [3]): 41.5 µM
Ki (OsG6PDH2 [4]): 30 µM
